The results in this text go back to US12545699B2, “Bivalent LECA inhibitors targeting biofilm formation of Pseudomonas aeruginosa” (HELMHOLTZ-ZENTRUM FÜR INFEKTIONSFORSCHUNG GMBH, priority 2019, dated 2026).

Assay [1] concerns the target T1, LecA (Pseudomonas aeruginosa, UniProt Q05097).
T1 construct: made in house
Description: surface plasmon resonance (SPR) direct binding to immobilised LecA. The procedure:
All experiments were performed on a BIACORE X100 instrument (GE Healthcare) at 25° C. and a flow rate of 10 μL min^−1. […] LecA was dissolved in 10 mM sodium acetate pH 4.5 (100 μg mL^−1) and injected over the activated chip surface on channel 2 (contact time of 540 s) until the response of ˜4000 RU was reached. Excess free amine groups were capped with an injection of 1 M ethanolamine (contact time 540 s). Bivalent compounds were dissolved in 100% DMSO and subsequently diluted to required concentrations in a running buffer (10 mM phosphate buffer pH 7.4, 2.7 mM KCl, 137 mM NaCl, 100 μM CaCl2, 0.05% Tween 20, 5% DMSO). The bivalent analytes were subjected to single-cycle kinetics analyses (contact time of 120 s and dissociation time of 120 s) consisting of injections of the analytes at 0, 10, 50, 100, and 200 nM over the immobilised-LecA. The chip surface was regenerated by 5× injections of 100 μM 4-nitrophenyl-β-D-galactose (contact time of 120 s). KD determination was performed using BIACORE X100 evaluation software (version 2.0) by applying 1:1 binding model to fit the experimental data. • [1] H. E. Gottlieb, V. Kotlyar, A. Nudelman, J. Org. Chem. 1997, 62, 7512-7515. • [2] M. Seligman, J. Biol. Chem. 1952, 195, 239-249. • [3] S. T. Xue, W. Y. He, L. L. Ma, H. Q. Wang, B. Wang, G. H. Zheng, X. Y. Ji, T. Zhang, Y. H. Li, J. D. Jiang, et al., Molecules 2013, 18, 3789-3805. • [4] Y. Li, H. Mo, G. Lian, B. Yu, Carbohydr. Res. 2012, 363, 14-22. • [5] F. Yang, F. Xie, Y. Zhang, Y. Xia, W. Liu, F. Jiang, C. Lam, Y. Qiao, D. Xie, J. Li, et al., Bioorganic Med. Chem. Lett. 2017, 27, 2166-2170. Synthesis Schemes and Results of Biophysical Assays

Assay [2] concerns the target T1, LecA. Description: competitive binding assay based on fluorescence polarisation (FP). The procedure:
Binding of ligands to LecA was evaluated in competitive assay based on fluorescence polarisation.

Setting [3] is: FP IC50, Table 1, 20 μM LecA, 10 nM reporter ligand 8, TBS/Ca2+ buffer with 25% DMSO (**).
Setting [4] is: IC50, Table 3, TBS/Ca2+ buffer in presence of 25% DMSO.

T1 sequence (Q05097 whole entry): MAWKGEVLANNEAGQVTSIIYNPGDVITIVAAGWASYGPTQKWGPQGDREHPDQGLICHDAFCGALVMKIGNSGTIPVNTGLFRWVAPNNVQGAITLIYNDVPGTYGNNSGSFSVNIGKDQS

At LecA [1], `O=C(NCc1cn(CCOCCOCCOCCNC(=S)Nc2ccc3c(c2)C(=O)OC32c3ccc(O)cc3Oc3cc(O)ccc32)nn1)c1ccc(C(Oc2ccc(/C=N/NC(=O)c3ccc(O[C@@H]4OC(CO)[C@H](O)C(O)C4O)cc3)cc2)Oc2ccc(/C=N/NC(=O)c3ccc(O[C@@H]4OC(CO)[C@H](O)C(O)C4O)cc3)cc2)cc1` (stereo partly shown) [Compound 13] showed a Kd of 37.2 ± 2.9 nM and a koff of 0.00593 ± 0.00051 s⁻¹. Moreover, the kon on LecA [1] (Table 2, SPR, three independent experiments) is reported as 160 ± 19 ×10^3/Ms.
With `O=C(NN=Cc1ccc(Oc2ccc(C=NNC(=O)c3cccc(OC4OC(CO)C(O)C(O)C4O)c3)cc2)cc1)c1cccc(OC2OC(CO)C(O)C(O)C2O)c1` (stereo not shown) [Compound A6m], the IC50 on LecA [2] (setting [3]) is 4.1 ± 3 µM. The molecule further had a Kd on LecA [1] of 16.6 ± 2 nM.
Taken in the same sequence, the figures for `O=C(NN=Cc1ccc(Oc2ccc(C=NNC(=O)c3ccc(OC4OC(CO)C(O)C(O)C4O)cc3)cc2)cc1)c1ccc(OC2OC(CO)C(O)C(O)C2O)cc1` (stereo not shown) [Compound A6p] were 4.3 ± 2.3 µM and 21.7 ± 7.6 nM.
In turn, `O=C(NN=Cc1ccc(OCOc2ccc(C=NNC(=O)c3cccc(OC4OC(CO)C(O)C(O)C4O)c3)cc2)cc1)c1cccc(OC2OC(CO)C(O)C(O)C2O)c1` (stereo not shown) [Compound B6m] showed an IC50 at LecA [2] (setting [3]) of 3.1 ± 2 µM. On LecA [1], the affinity, expressed as Kd, was 14.3 ± 6 nM.
`O=C(NN=Cc1ccc(OCOc2ccc(C=NNC(=O)c3ccc(OC4OC(CO)C(O)C(O)C4O)cc3)cc2)cc1)c1ccc(OC2OC(CO)C(O)C(O)C2O)cc1` (stereo not shown) [Compound B6p] displayed an IC50 at LecA [2] (setting [3]) of 3.7 ± 1.8 µM. Further, at LecA [1], binding was put at a Kd of 30.5 ± 28 nM.
On to `O=C(NN=Cc1ccc(OCCOc2ccc(C=NNC(=O)c3cccc(OC4OC(CO)C(O)C(O)C4O)c3)cc2)cc1)c1cccc(OC2OC(CO)C(O)C(O)C2O)c1` (stereo not shown) [Compound C6m], for which, at LecA [2] (setting [3]), the IC50 turned out to be 2 ± 1.9 µM. Binding at LecA [1] was put at a Kd of 14.9 ± 11.9 nM.
As for `O=C(NN=Cc1ccc(OCCOc2ccc(C=NNC(=O)c3ccc(OC4OC(CO)C(O)C(O)C4O)cc3)cc2)cc1)c1ccc(OC2OC(CO)C(O)C(O)C2O)cc1` (stereo not shown) [Compound C6p], the IC50 on LecA [2] (setting [3]) stood at 3.8 ± 1.6 µM. Further, at LecA [1], the equilibrium dissociation constant (Kd) worked out at 41.7 ± 23.9 nM.
As for `O=C(NN=Cc1ccc(OCCCOc2ccc(C=NNC(=O)c3cccc(OC4OC(CO)C(O)C(O)C4O)c3)cc2)cc1)c1cccc(OC2OC(CO)C(O)C(O)C2O)c1` (stereo not shown) [Compound D6m], the dissociation constant Kd at LecA [1] was 65.9 ± 6.2 nM.
Consider `O=C(NN=Cc1ccc(OCCCOc2ccc(C=NNC(=O)c3ccc(OC4OC(CO)C(O)C(O)C4O)cc3)cc2)cc1)c1ccc(OC2OC(CO)C(O)C(O)C2O)cc1` (stereo not shown) [Compound D6p], for which the 50% inhibitory concentration (IC50) at LecA [2] (setting [3]) stood at 3.6 ± 1.7 µM. Further, the Kd at LecA [1] came out at 50 ± 19.4 nM.
At LecA [2] (setting [3]), `O=C(NN=Cc1ccc(OCCCCOc2ccc(C=NNC(=O)c3cccc(OC4OC(CO)C(O)C(O)C4O)c3)cc2)cc1)c1cccc(OC2OC(CO)C(O)C(O)C2O)c1` (stereo not shown) [Compound E6m] had a 50% inhibitory concentration (IC50) of 6.3 ± 6.4 µM. The same molecule displayed a Kd on LecA [1] of 25.7 ± 19.2 nM.
Taken in the same sequence, the figures for `O=C(NN=Cc1ccc(OCCCCOc2ccc(C=NNC(=O)c3ccc(OC4OC(CO)C(O)C(O)C4O)cc3)cc2)cc1)c1ccc(OC2OC(CO)C(O)C(O)C2O)cc1` (stereo not shown) [Compound E6p] were 4.9 ± 1.4 µM and 94 ± 28.9 nM.
Molecule `O=C(/C=C/c1ccc(O[C@@H]2O[C@H](CO)[C@H](O)[C@H](O)[C@H]2O)cc1)Nc1ccc(Oc2ccc(NC(=O)/C=C/c3ccc(O[C@@H]4O[C@H](CO)[C@H](O)[C@H](O)[C@H]4O)cc3)cc2)cc1` [Compound G18] came in with a koff at LecA [1] of 0.00596 ± 0.00206 s⁻¹.
In turn, `O=C(CCc1ccc(O[C@@H]2O[C@H](CO)[C@H](O)[C@H](O)[C@H]2O)cc1)Nc1ccc(Oc2ccc(NC(=O)CCc3ccc(O[C@@H]4O[C@H](CO)[C@H](O)[C@H](O)[C@H]4O)cc3)cc2)cc1` [Compound G30] had a koff at LecA [1] of 0.00349 ± 8e-05 s⁻¹. Compared with the last molecule, the koff is about 1.7-fold lower.
In turn, `O=C(/C=C/c1ccc(O[C@@H]2O[C@H](CO)[C@H](O)[C@H](O)[C@H]2O)cc1)Nc1ccc(OCOc2ccc(NC(=O)/C=C/c3ccc(O[C@@H]4O[C@H](CO)[C@H](O)[C@H](O)[C@H]4O)cc3)cc2)cc1` [Compound H18] gave a koff at LecA [1] of 0.00379 ± 0.00089 s⁻¹.
Take `O=C(CCc1ccc(O[C@@H]2O[C@H](CO)[C@H](O)[C@H](O)[C@H]2O)cc1)Nc1ccc(OCOc2ccc(NC(=O)CCc3ccc(O[C@@H]4O[C@H](CO)[C@H](O)[C@H](O)[C@H]4O)cc3)cc2)cc1` [Compound H30]: at LecA [1], the koff was found to be 0.00462 ± 0.0002 s⁻¹.
Turning to `O=C(/C=C/c1ccc(O[C@@H]2O[C@H](CO)[C@H](O)[C@H](O)[C@H]2O)cc1)Nc1ccc(OCCOc2ccc(NC(=O)/C=C/c3ccc(O[C@@H]4O[C@H](CO)[C@H](O)[C@H](O)[C@H]4O)cc3)cc2)cc1` [Compound I18], the koff at LecA [1] worked out at 0.00249 ± 0.00028 s⁻¹.
For `O=C(CCc1ccc(O[C@@H]2O[C@H](CO)[C@H](O)[C@H](O)[C@H]2O)cc1)Nc1ccc(OCCOc2ccc(NC(=O)CCc3ccc(O[C@@H]4O[C@H](CO)[C@H](O)[C@H](O)[C@H]4O)cc3)cc2)cc1` [Compound I30], at LecA [1], the off-rate (koff) is 0.00284 ± 6e-05 s⁻¹. This koff and that of the molecule before are within 1.5-fold of each other.
As to `O=C(/C=C/c1ccc(O[C@@H]2O[C@H](CO)[C@H](O)[C@H](O)[C@H]2O)cc1)Nc1ccc(OCCCOc2ccc(NC(=O)/C=C/c3ccc(O[C@@H]4O[C@H](CO)[C@H](O)[C@H](O)[C@H]4O)cc3)cc2)cc1` [Compound J18], the koff on LecA [1] is 0.00251 ± 0.00022 s⁻¹.
As for `O=C(CCc1ccc(O[C@@H]2O[C@H](CO)[C@H](O)[C@H](O)[C@H]2O)cc1)Nc1ccc(OCCCOc2ccc(NC(=O)CCc3ccc(O[C@@H]4O[C@H](CO)[C@H](O)[C@H](O)[C@H]4O)cc3)cc2)cc1` [Compound J30], the koff on LecA [1] came out at 0.00345 ± 0.00013 s⁻¹.
As to `O=C(/C=C/c1ccc(O[C@@H]2O[C@H](CO)[C@H](O)[C@H](O)[C@H]2O)cc1)Nc1ccc(OCCCCOc2ccc(NC(=O)/C=C/c3ccc(O[C@@H]4O[C@H](CO)[C@H](O)[C@H](O)[C@H]4O)cc3)cc2)cc1` [Compound K18], on LecA [1], the koff is 0.00388 ± 0.00043 s⁻¹.
In turn, `O=C(CCc1ccc(O[C@@H]2O[C@H](CO)[C@H](O)[C@H](O)[C@H]2O)cc1)Nc1ccc(OCCCCOc2ccc(NC(=O)CCc3ccc(O[C@@H]4O[C@H](CO)[C@H](O)[C@H](O)[C@H]4O)cc3)cc2)cc1` [Compound K30] gave a koff on LecA [1] of 0.00366 ± 0.00042 s⁻¹.
For `O=C(CCc1ccc(O[C@@H]2O[C@H](CO)[C@H](O)[C@H](O)[C@H]2O)cc1)Nc1ccc(OCCOc2ccc(NC(=O)CCc3ccc(O[C@@H]4O[C@H](CO)[C@H](O)[C@H](O)[C@H]4O)cc3)cn2)nc1` [Compound M31], at LecA [2] (setting [4]), the IC50 was determined as 4.1 ± 2.2 µM. Besides, the koff on LecA [1] was determined as 0.00141 ± 5e-05 s⁻¹.
As for `O=C(CCc1ccc(O[C@@H]2O[C@H](CO)[C@H](O)[C@H](O)[C@H]2O)cc1)Nc1ccc(OCCCOc2ccc(NC(=O)CCc3ccc(O[C@@H]4O[C@H](CO)[C@H](O)[C@H](O)[C@H]4O)cc3)cn2)nc1` [Compound N31], on LecA [2] (setting [4]), the IC50 was 2.7 ± 1.1 µM.
In the case of `O=C(/C=C/c1ccc(O[C@@H]2O[C@H](CO)[C@H](O)[C@H](O)[C@H]2O)cc1)Nc1ccc(OCCCOc2ccc(NC(=O)/C=C/c3ccc(O[C@@H]4O[C@H](CO)[C@H](O)[C@H](O)[C@H]4O)cc3)cn2)nc1` [Compound N32], at LecA [2] (setting [4]), the IC50 turned out to be 4.3 ± 2 µM.
The same measure, in the same setting: the result for `O=C(CCc1ccc(O[C@@H]2O[C@H](CO)[C@H](O)[C@H](O)[C@H]2O)cc1)Nc1ccc(OCCCCOc2ccc(NC(=O)CCc3ccc(O[C@@H]4O[C@H](CO)[C@H](O)[C@H](O)[C@H]4O)cc3)cn2)nc1` [Compound O31] reads 3.2 ± 1.8 µM; that for `O=[N+]([O-])c1ccc(O[C@@H]2O[C@H](CO)[C@H](O)[C@H](O)[C@H]2O)cc1` [pNO2-Ph-β-Gal, reference compound], 40.4 ± 12.9 µM.
As for `NNC(=O)c1ccc(O[C@@H]2OC(CO)[C@H](O)C(O)C2O)cc1` (stereo partly shown) [reference compound], the IC50 was 22.6 ± 8.7 µM at LecA [2] (FP IC50, Table 1, 20 μM LecA, 10 nM reporter ligand 8, TBS/Ca2+ buffer with 4% DMSO (*)) and 30.3 µM at LecA [2] (setting [3]).

One may read the Kd as the equilibrium constant for the complex coming apart. Higher therefore signals weaker binding. By koff is commonly meant the rate constant with which the complex falls apart. A higher koff goes with fast dissociation. As usually defined, the IC50 is the midpoint of a concentration-inhibition curve.
